Laboratory results from PubChem BioAssay AID2060509 (Molecular Pharmacology Branch, DTP, NCI, 2025).

Tested on: 485176-168-R4-J1-PDC spheroids with HUVEC/MSC, viability
Test: Anticancer human tumor 485176-168-R4-J1-PDC patient-derived pancreatic adenocarcinoma cell line growth inhibition [GQUAD]
Settings: for IC50: curve of first compound; for viability, T/C: stronger effect = lower value
Summary of the method: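 Viability of tumor cells grown as complex spheroids with endothelial and stromal cells, exposed to drug combinations. Top concentration at or near clinical Cmax (else 10 microM), diluted in half-log increments.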

[1] = second compound 0.0316 µM, first compound 0.000999 µM
[2] = second compound 0.0316 µM, first compound 0.00316 µM
[3] = second compound 0.0316 µM, first compound 0.00999 µM
[4] = second compound 0.0316 µM, first compound 0.0316 µM
[5] = second compound 0.0316 µM, first compound 0.0999 µM
[6] = second compound 0.0316 µM, first compound 0.316 µM
[7] = second compound 0.1 µM, first compound 0.000999 µM
[8] = second compound 0.1 µM, first compound 0.00316 µM
[9] = second compound 0.1 µM, first compound 0.00999 µM
[10] = second compound 0.1 µM, first compound 0.0316 µM
[11] = second compound 0.1 µM, first compound 0.0999 µM
[12] = second compound 0.1 µM, first compound 0.316 µM
[13] = second compound 0.316 µM, first compound 0.000999 µM
[14] = second compound 0.316 µM, first compound 0.00316 µM
[15] = second compound 0.316 µM, first compound 0.00999 µM
[16] = second compound 0.316 µM, first compound 0.0316 µM
[17] = second compound 0.316 µM, first compound 0.0999 µM
[18] = second compound 0.316 µM, first compound 0.316 µM
[19] = second compound 1 µM, first compound 0.000999 µM
[20] = second compound 1 µM, first compound 0.00316 µM
[21] = second compound 1 µM, first compound 0.00999 µM
[22] = second compound 1 µM, first compound 0.0316 µM
[23] = second compound 1 µM, first compound 0.0999 µM
[24] = second compound 1 µM, first compound 0.316 µM
[25] = second compound 3.16 µM, first compound 0.000999 µM
[26] = second compound 3.16 µM, first compound 0.00316 µM
[27] = second compound 3.16 µM, first compound 0.00999 µM
[28] = second compound 3.16 µM, first compound 0.0316 µM
[29] = second compound 3.16 µM, first compound 0.0999 µM
[30] = second compound 3.16 µM, first compound 0.316 µM
[31] = second compound 10 µM, first compound 0.000999 µM
[32] = second compound 10 µM, first compound 0.00316 µM
[33] = second compound 10 µM, first compound 0.00999 µM
[34] = second compound 10 µM, first compound 0.0316 µM
[35] = second compound 10 µM, first compound 0.0999 µM
[36] = second compound 10 µM, first compound 0.316 µM
[37] = second compound 0.0316 µM, first compound 0.1 µM
[38] = second compound 0.0316 µM, first compound 1 µM
[39] = second compound 0.0316 µM, first compound 3.16 µM
[40] = second compound 0.0316 µM, first compound 10 µM
[41] = second compound 0.1 µM, first compound 0.1 µM
[42] = second compound 0.1 µM, first compound 1 µM
[43] = second compound 0.1 µM, first compound 3.16 µM
[44] = second compound 0.1 µM, first compound 10 µM
[45] = second compound 0.316 µM, first compound 0.1 µM
[46] = second compound 0.316 µM, first compound 1 µM
[47] = second compound 0.316 µM, first compound 3.16 µM
[48] = second compound 0.316 µM, first compound 10 µM
[49] = second compound 1 µM, first compound 0.1 µM
[50] = second compound 1 µM, first compound 1 µM
[51] = second compound 1 µM, first compound 3.16 µM
[52] = second compound 1 µM, first compound 10 µM
[53] = second compound 3.16 µM, first compound 0.1 µM
[54] = second compound 3.16 µM, first compound 1 µM
[55] = second compound 3.16 µM, first compound 3.16 µM
[56] = second compound 3.16 µM, first compound 10 µM
[57] = second compound 10 µM, first compound 0.1 µM
[58] = second compound 10 µM, first compound 1 µM
[59] = second compound 10 µM, first compound 3.16 µM
[60] = second compound 10 µM, first compound 10 µM
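Note: spheroids exposed to compounds for seven days before readout.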
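Throughout, for viability, T/C: percent viability relative to DMSO vehicle control wells as 100%.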

Cn1ncnc1[C@H]1c2n[nH]c(=O)c3cc(F)cc(c23)N[C@@H]1c1ccc(F)cc1 + Cc1cnc(CNC(=O)c2c(=O)c3ccc(N4CCCN(C)CC4)nc3n3c2sc2ccccc23)cn1
IC50 (second compound 0.0316 µM): > 316 nM | IC50 (second compound 0.1 µM): > 316 nM | IC50 (second compound 0.316 µM): > 316 nM | IC50 (second compound 1 µM): > 316 nM | IC50 (second compound 3.16 µM): 7.33 nM | IC50 (second compound 10 µM): < 0.999 nM | viability, T/C [1]: 90.2% | viability, T/C [2]: 79% | viability, T/C [3]: 91.5% | viability, T/C [4]: 90.2% | viability, T/C [5]: 91.4% | viability, T/C [6]: 80.8% | viability, T/C [7]: 74.4% | viability, T/C [8]: 91.7% | viability, T/C [9]: 75.8% | viability, T/C [10]: 77.3% | viability, T/C [11]: 78.9% | viability, T/C [12]: 69.9% | viability, T/C [13]: 63.6% | viability, T/C [14]: 70.5% | viability, T/C [15]: 64.8% | viability, T/C [16]: 62.7% | viability, T/C [17]: 56.2% | viability, T/C [18]: 68.7% | viability, T/C [19]: 49.3% | viability, T/C [20]: 61.2% | viability, T/C [21]: 74% | viability, T/C [22]: 51.8% | viability, T/C [23]: 52.8% | viability, T/C [24]: 48.5% | viability, T/C [25]: 45.4% | viability, T/C [26]: 63.9% | viability, T/C [27]: 48.3% | viability, T/C [28]: 45.3% | viability, T/C [29]: 45.4% | viability, T/C [30]: 40% | viability, T/C [31]: 42.8% | viability, T/C [32]: 48.4% | viability, T/C [33]: 39.2% | viability, T/C [34]: 34.8% | viability, T/C [35]: 38.1% | viability, T/C [36]: 33.5%

CCc1c2c(nc3ccc(O)cc13)-c1cc3c(c(=O)n1C2)COC(=O)[C@]3(O)CC + CN(C)c1ccc(Nc2c3ccc(NC(=O)CCN4CCCC4)cc3nc3cc(NC(=O)CCN4CCCC4)ccc23)cc1
IC50 (second compound 0.0316 µM): 6.98 nM | IC50 (second compound 0.1 µM): 9.32 nM | IC50 (second compound 0.316 µM): 9.31 nM | IC50 (second compound 1 µM): 7.26 nM | IC50 (second compound 3.16 µM): 11.2 nM | IC50 (second compound 10 µM): 7.71 nM | viability, T/C [1]: 87.7% | viability, T/C [2]: 68.4% | viability, T/C [3]: 38.3% | viability, T/C [4]: 28.5% | viability, T/C [5]: 13.5% | viability, T/C [6]: 6% | viability, T/C [7]: 77.8% | viability, T/C [8]: 67.9% | viability, T/C [9]: 48.1% | viability, T/C [10]: 28.6% | viability, T/C [11]: 11.2% | viability, T/C [12]: 5.98% | viability, T/C [13]: 91.1% | viability, T/C [14]: 86.8% | viability, T/C [15]: 41.8% | viability, T/C [16]: 27.6% | viability, T/C [17]: 12.9% | viability, T/C [18]: 6.92% | viability, T/C [19]: 103% | viability, T/C [20]: 58% | viability, T/C [21]: 50.7% | viability, T/C [22]: 28.1% | viability, T/C [23]: 13.8% | viability, T/C [24]: 6.15% | viability, T/C [25]: 88.8% | viability, T/C [26]: 88% | viability, T/C [27]: 43.4% | viability, T/C [28]: 34.2% | viability, T/C [29]: 14.3% | viability, T/C [30]: 8.88% | viability, T/C [31]: 80.3% | viability, T/C [32]: 61% | viability, T/C [33]: 45.3% | viability, T/C [34]: 34.1% | viability, T/C [35]: 19.3% | viability, T/C [36]: 8.05%

Cc1cccc(N(C)C(=O)C2C(O)CCN2c2nc(C)cc(C(F)(F)F)c2C#N)c1 (stereo not drawn) + CN(C)c1ccc(Nc2c3ccc(NC(=O)CCN4CCCC4)cc3nc3cc(NC(=O)CCN4CCCC4)ccc23)cc1
IC50 (second compound 0.0316 µM): > 10000 nM | IC50 (second compound 0.1 µM): > 10000 nM | IC50 (second compound 0.316 µM): > 10000 nM | IC50 (second compound 1 µM): > 10000 nM | IC50 (second compound 3.16 µM): > 10000 nM | IC50 (second compound 10 µM): > 10000 nM | viability, T/C [4]: 103% | viability, T/C [37]: 93.5% | viability, T/C [6]: 86.2% | viability, T/C [38]: 105% | viability, T/C [39]: 111% | viability, T/C [40]: 102% | viability, T/C [10]: 91.9% | viability, T/C [41]: 102% | viability, T/C [12]: 98% | viability, T/C [42]: 84.2% | viability, T/C [43]: 94.3% | viability, T/C [44]: 98.9% | viability, T/C [16]: 106% | viability, T/C [45]: 89.1% | viability, T/C [18]: 109% | viability, T/C [46]: 109% | viability, T/C [47]: 118% | viability, T/C [48]: 94.3% | viability, T/C [22]: 93.5% | viability, T/C [49]: 93.6% | viability, T/C [24]: 104% | viability, T/C [50]: 112% | viability, T/C [51]: 101% | viability, T/C [52]: 85.6% | viability, T/C [28]: 110% | viability, T/C [53]: 95.4% | viability, T/C [30]: 80.6% | viability, T/C [54]: 94% | viability, T/C [55]: 111% | viability, T/C [56]: 98.2% | viability, T/C [34]: 97.3% | viability, T/C [57]: 93% | viability, T/C [36]: 81.1% | viability, T/C [58]: 86.7% | viability, T/C [59]: 62% | viability, T/C [60]: 59.2%

COc1cccc2c1C(=O)c1c(O)c3c(c(O)c1C2=O)CC(O)(C(=O)CO)CC3OC1CC(N)C(O)C(C)O1 (stereo not drawn) + Cc1[nH]c2ccc(F)cc2c1-c1nc2c3cccnc3c3ncccc3c2[nH]1
IC50 (second compound 0.0316 µM): 391 nM | IC50 (second compound 0.1 µM): 267 nM | IC50 (second compound 0.316 µM): 259 nM | IC50 (second compound 1 µM): 433 nM | IC50 (second compound 3.16 µM): 249 nM | IC50 (second compound 10 µM): 314 nM | viability, T/C [4]: 90.1% | viability, T/C [37]: 71.5% | viability, T/C [6]: 61.1% | viability, T/C [38]: 14.7% | viability, T/C [39]: 4.77% | viability, T/C [40]: 0.13% | viability, T/C [10]: 106% | viability, T/C [41]: 71.6% | viability, T/C [12]: 49.5% | viability, T/C [42]: 23.3% | viability, T/C [43]: 3.92% | viability, T/C [44]: 0.39% | viability, T/C [16]: 81.4% | viability, T/C [45]: 65.9% | viability, T/C [18]: 47.4% | viability, T/C [46]: 23.6% | viability, T/C [47]: 3.52% | viability, T/C [48]: 0.18% | viability, T/C [22]: 86.1% | viability, T/C [49]: 72.5% | viability, T/C [24]: 60.9% | viability, T/C [50]: 26.8% | viability, T/C [51]: 4.08% | viability, T/C [52]: 0.14% | viability, T/C [28]: 82.9% | viability, T/C [53]: 59.3% | viability, T/C [30]: 52% | viability, T/C [54]: 24.9% | viability, T/C [55]: 19.5% | viability, T/C [56]: 0.2% | viability, T/C [34]: 82% | viability, T/C [57]: 70.6% | viability, T/C [36]: 50.8% | viability, T/C [58]: 21.8% | viability, T/C [59]: 3.95% | viability, T/C [60]: 0.38%
